The test system of test [1] is pERK (phospho-p44/42 ERK) in HCC827 cells. The test is described as follows: Cellular pERK Inhibition Assay, Method A (In-Cell Western). It counts as cell-based. The protocol:
Cellular pERK Inhibition Assay
pERK levels were determined using the In-Cell Western assay. HCC827 cells (ATCC, Manassas, USA) were seeded into 384-well plates at a density of 1×10^4 cells/well in RPMI1640 medium supplemented with 10% FBS and incubated 24h. Compounds were diluted first in DMSO and then into serum-free medium, before being added to cells in quadruplicate to give a final concentration of 0.2% DMSO. Plates were incubated at 37° C. for the indicated time in a humidified atmosphere of 5% CO2 in air.
Following compound treatment, cells were fixed with formalin neutral buffer solution for 20 minutes at room temperature. Plates were washed three times with 0.1% Triton-X in PBS and cells were blocked for 1 hour with Odyssey blocking buffer (LI-COR, #927-40000). After shaking out blocking buffer, cells were incubated with phospho-p44/42 ERK antibody (Cell Signalling Technology, #4370, 1:200) diluted in Odyssey blocking buffer at 4° C. overnight. Plates were washed again and cells were incubated for 1 hour with Goat anti-Rabbit […] (LI-COR, #926-32211, 1:800) diluted in Odyssey blocking buffer. After washing and removing wash solution completely using a centrifuge machine, cells were scanned on the Odyssey (LI-COR), following the manufacturer's instructions. The average signal from blank wells (no cells added) was subtracted from the signals from each sample well. Levels of pERK were then expressed as percent of control, using DMSO treated samples as control. The relative IC50 values were calculated in quadruplicate from the normalized dose-response plots using four parameter logistic curve fit. The Experiment for each compound was carried out in one time or multiple times, and the IC50 values were shown as a single value (for a compound measured in a single experiment) or an average value (for a compound measured in multiple experiments).

The next test addresses SHP2 (Homo sapiens (Human), UniProt Q06124). As to the kind of experiment: SHP2 Biochemical Assay (DiFMUP conversion, pIRS1-activated). On the procedure: SHP2 activity was monitored by measuring the conversion of the surrogate substrate 6,8-difluoromethylumbelliferyl phosphate (DiFMUP) to the fluorescent product, 6,8-difluoromethylumbelliferone (DiFMU).
SHP2 was pre-incubated with test compounds and the activating peptide pIRS1 (H2N-LN(pY)IDLDLV-(PEG)8-LST(pY)ASINFQK-amide) for 30 min, prior to addition of the 6,8-difluoromethylumbelliferyl phosphate (DiFMUP), (Thermo Fisher D6567). Final assay concentrations were 10 pM SHP2, […] pIRS1 peptide, 50 μM DiFMUP, 25 mM Bis-Tris propane, pH 7.0, 150 mM NaCl, 0.05% (v/v) Tween-20, 0.5 mM TCEP and 5% (v/v) DMSO. Rates of reaction were then measured over 30 min by monitoring fluorescence on a BMG Pherastar reader at excitation 360 nm/emission 450 nm. IC50 values were calculated in singlicate from the normalized dose-response plots using four parameter logistic curve fit. The Experiment for each compound was carried out in one time or multiple times, and the IC50 values were shown as a single value (for a compound measured in a single experiment) or an average value (for a compound measured in multiple experiments).

The mark [2] stands for this setting: Table 19, head prints unit as "-M".
Where [3] appears, read: Homo sapiens, Table 19, head prints unit as "-M", read-out: pERK (IC50) Method A.

Where two headings read alike, the source gives them in different places. Some results are limits rather than exact numbers.

Chain of SHP2 (Q06124 whole entry): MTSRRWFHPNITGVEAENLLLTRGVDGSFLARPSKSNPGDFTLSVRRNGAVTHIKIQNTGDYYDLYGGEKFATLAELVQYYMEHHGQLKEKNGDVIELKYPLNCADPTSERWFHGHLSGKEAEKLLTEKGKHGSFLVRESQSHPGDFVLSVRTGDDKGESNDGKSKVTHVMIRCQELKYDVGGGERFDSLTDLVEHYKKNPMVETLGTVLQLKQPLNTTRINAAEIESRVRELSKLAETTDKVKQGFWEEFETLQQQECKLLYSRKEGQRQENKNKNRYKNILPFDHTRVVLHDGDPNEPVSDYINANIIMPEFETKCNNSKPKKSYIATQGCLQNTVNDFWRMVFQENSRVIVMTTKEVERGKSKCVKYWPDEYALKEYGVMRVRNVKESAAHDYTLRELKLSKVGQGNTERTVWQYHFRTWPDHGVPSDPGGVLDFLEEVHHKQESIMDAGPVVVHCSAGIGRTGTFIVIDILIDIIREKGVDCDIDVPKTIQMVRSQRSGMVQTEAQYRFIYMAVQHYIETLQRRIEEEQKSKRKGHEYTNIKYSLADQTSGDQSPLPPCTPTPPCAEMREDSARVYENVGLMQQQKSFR

As a reminder, the IC50 is the concentration needed to halve the response being measured. `Cn1c(N2C3CCC2CC(N)C3)nc2[nH]cc(-c3cc4nnn(C)c4c(F)c3F)c2c1=O` (stereo not drawn) [Example 71, 2-(endo-3-amino-8-azabicyclo[3.2.1]octan-8-yl)-5-(6,7-difluoro-1-methyl-1H-benzo[d][1,2,3]triazol-5-yl)-3-methyl-3,7-dihydro-4H-pyrrolo[2,3-d]pyrimidin-4-one]: the IC50 in test [1] (Table 19, head prints unit as "-M", read-out: pERK (IC50) Method A) turned out to be 5 µM; against SHP2 (setting [2]), 0.26 µM. Turning to `Cn1nc2ccc(-c3c[nH]c4nc(N5C6CCCC5CNC6)n(C)c(=O)c34)c(Cl)c2c1Cl` [Example 99, 2-(3,9-diazabicyclo[3.3.1]nonan-9-yl)-5-(3,4-dichloro-2-methyl-2H-indazol-5-yl)-3-methyl-3,7-dihydro-4H-pyrrolo[2,3-d]pyrimidin-4-one], the IC50 came to 0.057 µM in test [1] (setting [3]) and 0.0045 µM against SHP2 (setting [2]). For `Cn1cc2c(Cl)c(-c3c[nH]c4nc(N5C6CCCC5CNC6)n(C)c(=O)c34)ccc2n1` [Example 27, 2-(3,9-diazabicyclo[3.3.1]nonan-9-yl)-5-(4-chloro-2-methyl-2H-indazol-5-yl)-3-methyl-3,7-dihydro-4H-pyrrolo[2,3-d]pyrimidin-4-one], the IC50 in test [1] (setting [3]) was determined as 0.046 µM; on SHP2 (setting [2]) it was 0.007 µM. Consider `Cn1c(N2C[C@@H]3CC[C@H]2[C@H]3N)nc2[nH]nc(-c3ccc4ncsc4c3Cl)c2c1=O` (racemic) [Example 134, rac-((1S,4S,7S)-7-amino-2-azabicyclo[2.2.1]heptan-2-yl)-3-(7-chlorobenzo[d]thiazol-6-yl)-5-methyl-1,5-dihydro-4H-pyrazolo[3,4-d]pyrimidin-4-one], for which the IC50 amounted to 0.083 µM in test [1] (setting [3]) and 0.004 µM at SHP2 (setting [2]). On to `Cn1cc2c(Cl)c(-c3c[nH]c4nc(N5CC[C@@H](N)C5)n(C)c(=O)c34)ccc2n1` [Example 44, (R)-2-(3-aminopyrrolidin-1-yl)-5-(4-chloro-2-methyl-2H-indazol-5-yl)-3-methyl-3,7-dihydro-4H-pyrrolo[2,3-d]pyrimidin-4-one], for which the IC50 in test [1] (setting [3]) worked out at 1.5 µM; on SHP2 (setting [2]), 0.055 µM. In the same order, the values of `CCn1nc2ccc(-c3c[nH]c4nc(N5[C@H]6CC[C@@H]5[C@H](N)C6)n(C)c(=O)c34)c(Cl)c2c1OC` [Example 102, 2-((1R,2R,4S)-2-amino-7-azabicyclo[2.2.1]heptan-7-yl)-5-(4-chloro-2-ethyl-3-methoxy-2H-indazol-5-yl)-3-methyl-3,7-dihydro-4H-pyrrolo[2,3-d]pyrimidin-4-one] are 0.088 µM and 0.009 µM. For `Cn1nc2ccc(-c3c[nH]c4nc(N5CC6COCC(C5)N6)n(C)c(=O)c34)c(Cl)c2c1Cl` [Example 80, 2-(3-oxa-7,9-diazabicyclo[3.3.1]nonan-7-yl)-5-(3,4-dichloro-2-methyl-2H-indazol-5-yl)-3-methyl-3,7-dihydro-4H-pyrrolo[2,3-d]pyrimidin-4-one], in that order: 0.27 µM and 0.011 µM. Regarding `COCCn1cc2c(Cl)c(-c3c[nH]c4nc(N5[C@H]6CC[C@@H]5[C@H](N)C6)n(C)c(=O)c34)ccc2n1` [Example 178, 2-((1R,2R,4S)-2-amino-7-azabicyclo[2.2.1]heptan-7-yl)-5-(4-chloro-2-(2-methoxyethyl)-2H-indazol-5-yl)-3-methyl-3,7-dihydro-4H-pyrrolo[2,3-d]pyrimidin-4-one], the IC50 in test [1] (Homo sapiens, Table 20, read-out: pERK (IC50, μM) Method A) came to 0.071 µM; at SHP2 (Table 20) it was 0.005 µM. Consider `Cn1cc2c(F)c(-c3c[nH]c4nc(N5[C@@H]6CC[C@H]5C[C@@H](N)C6)n(C)c(=O)c34)ccc2n1` [Example 70, 2-(endo-3-amino-8-azabicyclo[3.2.1]octan-8-yl)-5-(4-fluoro-2-methyl-2H-indazol-5-yl)-3-methyl-3,7-dihydro-4H-pyrrolo[2,3-d]pyrimidin-4-one], for which the values for the IC50 (in test [1] (setting [3]); against SHP2 (setting [2])) were 0.19 µM and 0.029 µM, respectively. For the molecule `Cn1cc2c(Cl)c(-c3c[nH]c4nc(N5CCC(N)(CO)C5)n(C)c(=O)c34)ccc2n1` (stereo not shown) [Example 58, 2-(3-amino-3-(hydroxymethyl)pyrrolidin-1-yl)-5-(4-chloro-2-methyl-2H-indazol-5-yl)-3-methyl-3,7-dihydro-4H-pyrrolo[2,3-d]pyrimidin-4-one], the IC50 was above 10 µM in test [1] (setting [3]) and 0.099 µM on SHP2 (setting [2]). In the case of `Cn1cc2c(Cl)c(-c3c[nH]c4nc(N5[C@@H]6CC[C@H]5[C@@H](F)[C@@H](N)C6)n(C)c(=O)c34)ccc2n1` [Example 132, 2-((1S,2S,3S,5R)-3-amino-2-fluoro-8-azabicyclo[3.2.1]octan-8-yl)-5-(4-chloro-2-methyl-2H-indazol-5-yl)-3-methyl-3,7-dihydro-4H-pyrrolo[2,3-d]pyrimidin-4-one], the figures for the IC50 (in test [1] (setting [3]); against SHP2 (setting [2])) were 0.25 µM and 0.015 µM, respectively.

For `CCn1nc2ccc(-c3n[nH]c4nc(N5[C@H]6CC[C@@H]5[C@H](N)C6)n(C)c(=O)c34)c(Cl)c2c1Cl` [Example 127, 6-((1R,2R,4S)-2-amino-7-azabicyclo[2.2.1]heptan-7-yl)-3-(3,4-dichloro-2-ethyl-2H-indazol-5-yl)-5-methyl-1,5-dihydro-4H-pyrazolo[3,4-d]pyrimidin-4-one], the IC50 in test [1] (setting [3]) was 0.063 µM; on SHP2 (setting [2]) it was 0.0037 µM.

Consider `CCn1cc2c(Cl)c(-c3c[nH]c4nc(N5CCC6(CCC[C@H]6N)CC5)n(C)c(=O)c34)ccc2n1` [Example 11, (R)-2-(1-amino-8-azaspiro[4.5]decan-8-yl)-5-(4-chloro-2-ethyl-2H-indazol-5-yl)-3-methyl-3,7-dihydro-4H-pyrrolo[2,3-d]pyrimidin-4-one], for which the values for the IC50 (in test [1] (setting [3]); against SHP2 (setting [2])) were 0.053 µM and 0.0063 µM, respectively. Take `CCn1cc2c(Cl)c(-c3c[nH]c4nc(N5[C@@H]6CC[C@H]5C[C@@H](NC)C6)n(C)c(=O)c34)ccc2n1` [Example 13, 5-(4-chloro-2-ethyl-2H-indazol-5-yl)-3-methyl-2-(endo-3-(methylamino)-8-azabicyclo[3.2.1]octan-8-yl)-3,7-dihydro-4H-pyrrolo[2,3-d]pyrimidin-4-one]: the IC50 in test [1] (setting [3]) came out at 0.34 µM; against SHP2 (setting [2]), 0.019 µM. In the same order, the values of `Cn1cc2c(Cl)c(-c3c[nH]c4nc(N5CC[C@@](C)(N)C5)n(C)c(=O)c34)ccc2n1` [Example 55, (R)-2-(3-amino-3-methylpyrrolidin-1-yl)-5-(4-chloro-2-methyl-2H-indazol-5-yl)-3-methyl-3,7-dihydro-4H-pyrrolo[2,3-d]pyrimidin-4-one] are 1.1 µM and 0.074 µM. For the molecule `CCn1cc2c(Cl)c(-c3n[nH]c4nc(N5C6CCCC5CNC6)n(C)c(=O)c34)ccc2n1` [Example 111, 6-(3,9-diazabicyclo[3.3.1]nonan-9-yl)-3-(4-chloro-2-ethyl-2H-indazol-5-yl)-5-methyl-1,5-dihydro-4H-pyrazolo[3,4-d]pyrimidin-4-one], the IC50 in test [1] (setting [3]) stood at 0.41 µM; against SHP2 (setting [2]) it was 0.026 µM. In the same order, the values of `Cn1cc2c(Cl)c(-c3c[nH]c4nc(N5CC6COCC(C5)N6)n(C)c(=O)c34)ccc2n1` [Example 17, 2-(3-oxa-7,9-diazabicyclo[3.3.1]nonan-7-yl)-5-(4-chloro-2-methyl-2H-indazol-5-yl)-3-methyl-3,7-dihydro-4H-pyrrolo[2,3-d]pyrimidin-4-one] are 0.8 µM and 0.043 µM.

For `Cn1cc2c(Cl)c(-c3c[nH]c4nc(N5C[C@H]6CC[C@@H](C5)[C@@H]6N)n(C)c(=O)c34)ccc2n1` [Example 24, 2-(exo-8-amino-3-azabicyclo[3.2.1]octan-3-yl)-5-(4-chloro-2-methyl-2H-indazol-5-yl)-3-methyl-3,7-dihydro-4H-pyrrolo[2,3-d]pyrimidin-4-one], the IC50 in test [1] (setting [3]) worked out at 0.14 µM; against SHP2 (setting [2]), 0.018 µM. Consider `CCn1cc2c(Cl)c(-c3c[nH]c4nc(N5C[C@@H]6CC[C@H]5[C@H]6N)n(C)c(=O)c34)ccc2n1` (stereo in doubt) [Example 133, rac-2-((1S,4S,7S)-7-amino-2-azabicyclo[2.2.1]heptan-2-yl)-5-(4-chloro-2-ethyl-2H-indazol-5-yl)-3-methyl-3,7-dihydro-4H-pyrrolo[2,3-d]pyrimidin-4-one], for which, in test [1] (setting [3]), the IC50 was found to be 0.046 µM.

The values are drawn from US12037345B2, “Heterobicyclic compounds for inhibiting the activity of SHP2” (TAIHO PHARMACEUTICAL CO., LTD., priority 2018, dated 2024).
